# Experimental data: patent US6399759B1, “Ant proteases and methods of inhibition” (University of Georgia Research Foundation, Inc., priority 1999, dated 2002)
# “And” between values parts separate entries of the source, which are not always exact repeats. Equal entries are not always repeated. Where a SMILES comes first, the peptide text is derived from it. [ ]: non-standard residue; d: D form. The star is where a group is joined. Sta = CC(C)C[C@H](N)[C@@H](O)CC(=O)O; Isovaleryl = CC(C)CC(=O)*
# Key:
# Soli C1 [1] = biological target: T1, Soli C1 (Solenopsis invicta, UniProt Q7SIG2); format: biochemical
# T1 construct: Fourth instar larvae were extracted in a 1:10 (weight/volume) ratio of 20 mM Tris-HCl pH 7.4; from tissue; host or cells: whole Solenopsis invicta 4th instar larvae (buffer extract, acetone precipitation, Q Sepharose peak III, Mono Q, Superdex 75)
# Soli C2 [2] = test: Inhibition of amidolytic activity by synthetic inhibitors; format: biochemical, Solenopsis invicta
# Soli E1 [3] = test: as above; format: biochemical, Solenopsis invicta
# Soli E2 [4] = test: as above; format: biochemical, Solenopsis invicta
# Soli C2 [5] = test: Inhibition of amidolytic activity by naturally occurring protease inhibitors; format: biochemical, Solenopsis invicta; settings: 10 minutes incubation at 25° C. in 50 mM Tris-HCl, 100 mM NaCl, pH 7.4
# Description: (§1) Enzyme Assay—Generally, the amidolytic activities of each proteinase were measured with the substrates MeOSuc-Ala-Ala-Pro-Val-pNA (SEQ ID NO:8) and N-Suc-Ala-Ala-Pro-Phe-pNA (SEQ ID NO:7) in 0.05 M Tris-HCl and 100 mM NaCl pH 7.4 (assay buffer). Release of the pNA group was assayed by monitoring the optical density of the test solution at […]. Enzyme inhibition assays by protein inhibitors were conducted in the same assay buffer using an inhibitor concentration ranging from 0.02-50 nM with a 10 minute preincubation time and with the final enzyme concentration being 1.0 nM. All kinetic studies with substrates and inhibitors were performed at the optimum pH of the individual proteinases, utilizing the following buffers: 150 mM NaCl, 50 mM Tris-HCl pH 8.0 (E1); 150 mM NaCl, 50 mM CHES pH 9.5 (E2 and C2); and 150 mM NaCl, 50 mM CAPS pH 10.0 (C1).
# Soli E1 [6] = test: as above; format: biochemical, Solenopsis invicta; settings: 10 minutes incubation at 25° C. in 50 mM Tris-HCl, 100 mM NaCl, pH 7.4
# Description: as §1
# Soli E2 [7] = test: as above; format: biochemical, Solenopsis invicta; settings: 10 minutes incubation at 25° C. in 50 mM Tris-HCl, 100 mM NaCl, pH 7.4
# Description: as §1
# Soli C1 [8] = biological target: T1, Soli C1; test: as above; format: biochemical; settings: 10 minutes incubation at 25° C. in 50 mM Tris-HCl, 100 mM NaCl, pH 7.4
# Description: as §1
# [9] = format: physicochemical, Solenopsis invicta
# Description: (§2) pH analysis—The determination of pH optimum and stability for each enzyme was performed using a Universal Phosphate Buffer system, which is a buffer made from boric acid and phosphoric acid titrated with sodium hydroxide such that the ionic strength is the same at any pH. Briefly, equal volumes of a solution of 80 mM boric acid and a solution of 80 mM phosphoric acid were combined, and 200 mM sodium hydroxide was added to bring the mixture to the desired pH.
# [10] = Isoelectrofocusing (IEF) of the purified proteinases; format: physicochemical, Solenopsis invicta; settings: IEF gels pH 3-10, Serva Test Mix 9 standards
# Description: IEF—Isoelectrofocusing of the purified proteinases was performed on precast isoelectric focusing gels (pH 3-10) obtained under the trade designation […] PRECOTES (Cresent Chemical Co., Inc., Hauppauge, N.Y.). Sample preparations and isoelectrofocusing were carried out following instructions provided by Pharmacia and using the Pharmacia Flatbed Electrophoresis Unit.
# IEF—Based on Serva Test Mix 9 IEF standards (Cresent Chemical Co., Inc.), the proteinases migrated to the following pI's; Soli E1, 10.0; Soli E2 (3 isoforms), 6.9, 8.3, 8.5; Soli C1, 4.7; and Soli C2, 4.2.
# [11] = pH optimum of the purified proteinases; format: biochemical, Solenopsis invicta; settings: Vmax of substrate hydrolysis, room temperature, pH range 3.0 to 12.0
# Description: as §2
# T1 sequence (Q7SIG2 whole entry): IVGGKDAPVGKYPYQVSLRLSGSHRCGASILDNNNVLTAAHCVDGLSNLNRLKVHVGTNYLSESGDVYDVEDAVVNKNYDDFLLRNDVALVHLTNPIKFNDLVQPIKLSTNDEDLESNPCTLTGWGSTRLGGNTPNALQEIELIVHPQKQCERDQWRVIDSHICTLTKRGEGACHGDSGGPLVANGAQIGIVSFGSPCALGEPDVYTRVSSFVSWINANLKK
Compound,Inhibition of Soli C1 by class-specific proteinase inhibitors (in words) (Soli C1 [1]),Inhibition of Soli C2 by class-specific proteinase inhibitors (in words) (Soli C2 [2]),Inhibition of Soli E1 by class-specific proteinase inhibitors (in words) (Soli E1 [3]),Stability of enzyme activity [9],pI [10],pH optimum [11],also measured
"CC(C)C[C@H](NC(=O)[C@H]1O[C@@H]1C(=O)O)C(=O)NCCCCN=C(N)N (relative stereo) [E-64, trans-epoxysuccinyl-L-leucylamido-(4-guanidino)butane]",not,not,not,,,,
"O=c1oc(Cl)c(Cl)c2ccccc12 [DCIC, 3,4-dichloroisocoumarin]","not Soli C1 or Soli C2, except after long incubation periods","not Soli C1 or Soli C2, except after long incubation periods",inhibited,,,,Inhibition of Soli E2 by class-specific proteinase inhibitors (in words) (Soli E2 [4]): inhibited
"O=C(O)CN(CCN(CC(=O)O)CC(=O)O)CC(=O)O [EDTA, ethylenediaminetetraacetate·2H2O]",not,not,not,,,,
CC(C)CC(=O)N[C@H](C(=O)N[C@H](C(=O)N[C@@H](CC(C)C)[C@@H](O)CC(=O)N[C@@H](C)C(=O)N[C@@H](CC(C)C)[C@@H](O)CC(=O)O)C(C)C)C(C)C [Pepstatin] (Isovaleryl-VV[Sta]A[Sta]-OH),not,not,not,,,,
Canadian Goose OM Domain III: Domain III of Canadian goose ovomucoid,,,,,,,IC50 (Soli C2 [5]): > 50 nM; IC50 (Soli E1 [6]): 1.51 nM; IC50 (Soli E2 [7]): 27.3 nM; IC50 (Soli C1 [8]): > 50 nM
Domestic Goose OM Domain III: Domain III of domestic goose ovomucoid,,,,,,,IC50 (Soli C2 [5]): > 50 nM; IC50 (Soli E1 [6]): > 50 nM; IC50 (Soli E2 [7]): 5.58 nM; IC50 (Soli C1 [8]): > 50 nM
"Soli C1: chymotrypsin-like serine proteinase, about 25 kDa, from S. invicta 4th instar larvae (IVGGDAPVGKYPYQVSLRLSG)",,,,stable for several days,4.7,9.0-10.5,
"Soli C2: chymotrypsin-like serine proteinase, about 28 kDa, from S. invicta 4th instar larvae (IVGGEPAPGGAYPFIVSLQV)",,,,lost their activities fairly quickly over all pHs,4.2,9.0,pH at which most stable [9]: 8.0
"Soli E1: elastase-like serine proteinase, about 23 kDa, from S. invicta 4th instar larvae (IVGGQPATPGEFPHQGSLRV)",,,,lost their activities fairly quickly over all pHs,10.0,8.0,pH at which most stable [9]: 7.0
"Soli E2: elastase-like serine proteinase, about 24 kDa, from S. invicta 4th instar larvae (IVGGQDAAPGEFPHQGSLRLRGSHI)",,,,lost their activities fairly quickly over all pHs,6.9 and 8.3 and 8.5,8.5-10,pH at which most stable [9]: 8.5
α1-PI: α-1-Proteinase Inhibitor,,,,,,,IC50 (Soli C2 [5]): 0.271 nM; IC50 (Soli E1 [6]): 1.2 nM; IC50 (Soli E2 [7]): 0.604 nM; IC50 (Soli C1 [8]): 0.338 nM
